Test results as given in the RepoRT retention time repository.

Test: HILIC, Waters ACQUITY UPLC BEH Amide, 100 × 2.1 mm, 1.7 µm; A: water + 0.125% formic acid + 10 mM ammonium formate; B: 5% water + 95% acetonitrile + 0.125% formic acid + 10 mM ammonium formate; gradient (min/%B) 0/100 2/100 7.7/70 9.5/40 10.25/30 12.75/100 17/100
Details: stereoisomer not certain

Row | SMILES | LC retention time [min]
1 | Oc1cc2ccccc2[nH]1 [2-Indolinone] | 1.36
2 | CN1CCN(C2=Nc3ccccc3Oc3ccc(Cl)cc32)CC1 [Loxapine] | 2.18
3 | NC(CCC(=O)NC(CS)C(=O)NCC(=O)O)C(=O)O (configuration not stated) [Glutathione (reduced)] | 9.07
4 | Cc1nc2ccccn2c(=O)c1CCN1CCC(C(=O)c2ccc(F)cc2)CC1 [Pirenperone] | 3.5
5 | Nc1ccn(C2OC(CO)C(O)C2O)c(=S)n1 (configuration not stated) [2-Thiocytidine] | 5.33
6 | COc1cc2c(cc1OC)C(=O)C(CC1CCN(Cc3ccccc3)CC1)C2 (configuration not stated) [Donepezil] | 2.44
7 | CC(C)NCC(O)COc1ccc(COCCOC(C)C)cc1 (configuration not stated) [Bisoprolol] | 3.47
8 | NC(=O)c1ccc[n+](C2OC(CO)C(O)C2O)c1 (configuration not stated) [Nicotinamide riboside cation] | 7.51
9 | CC(COc1ccccc1Cc1ccccc1)N1CCCCC1 (configuration not stated) [Benproperine] | 1.99
10 | CN(C)CCC(c1ccc(Cl)cc1)c1ccccn1 (configuration not stated) [Chlorpheniramine] | 2.54
11 | NCC1CCC(C(=O)Oc2ccc(CCC(=O)O)cc2)CC1 (configuration not stated) [Cetraxate] | 5.29
12 | CC(c1ncncc1F)C(O)(Cn1cncn1)c1ccc(F)cc1F (configuration not stated) [Voriconazole] | 1.02
13 | O=C(O)CCc1nc(-c2ccccc2)c(-c2ccccc2)o1 [Oxaprozin] | 1.11
14 | CCC(O)CC(=O)O (configuration not stated) [3-Hydroxyvaleric acid] | 1.29
15 | CN1CCC(c2ccc(F)cc2)C(COc2ccc3c(c2)OCO3)C1 (configuration not stated) [N-Methylparoxetine] | 2.2
16 | O=S(=O)(O)CCNC(CO)(CO)CO [TES] | 7.7
17 | Cc1ccc(C(C)C)c(O)c1 [Thymol] | 1.53
18 | NC(N)=NCCCC(=O)O [4-Guanidinobutyric acid] | 7.72
19 | NC(Cc1c[nH]c2ccc(O)cc12)C(=O)O (configuration not stated) [5-Hydroxytryptophan] | 7.48
20 | CC(=O)NC(CO)C(=O)O (configuration not stated) [N-Acetylserine] | 7.67
21 | CC1CNc2c(cccc2S(=O)(=O)NC(CCCN=C(N)N)C(=O)N2CCC(C)CC2C(=O)O)C1 (configuration not stated) [Argatroban] | 5.45
22 | O=c1ccn(C2OC(CO)CC2O)c(=O)[nH]1 (configuration not stated) [3-Deoxyuridine] | 2.87
23 | CCCCCC(O)CC (configuration not stated) [3-Octanol] | 8.47

Row | SMILES | LC retention time [min]
24 | CC(=O)SCC(Cc1ccccc1)C(=O)NCC(=O)OCc1ccccc1 (configuration not stated) [Racecadotril] | 0.95
25 | O=C1OC(CO)C(O)C(O)C1O (configuration not stated) [Gluconolactone] | 8.15
26 | CS(=O)CCCCN=C=S (configuration not stated) [Sulforaphane] | 1.14
27 | CC(C)C(N)C(=O)O (configuration not stated) [Valine] | 7.24
28 | O=C(O)CCc1ccccc1 [Hydrocinnamic acid] | 8.71
29 | OCc1ccccc1OC1OC(CO)C(O)C(O)C1O (configuration not stated) [Salicin] | 4.48
30 | CN(C)CCOc1ccc(C(=C(CCCl)c2ccccc2)c2ccccc2)cc1 [Toremifene] | 1.89
31 | COC(=O)CC(O)(CCCC(C)(C)O)C(=O)OC1C(OC)=CC23CCCN2CCc2cc4c(cc2C13)OCO4 (configuration not stated) [Homoharringtonine] | 3.24
32 | CCCCCCCCCOc1ccc2[nH]cc(CCN)c2c1 [5-Nonyloxytryptamine] | 3.4
33 | NCCCCC(NC(=O)C(N)CCC(=O)O)C(=O)O (configuration not stated) [Glu-Lys] | 9.9
34 | O=C(O)CCCCCCC(O)CC(=O)O (configuration not stated) [3-Hydroxysebacic acid] | 2.55
35 | CNc1nc2c(ncn2C2OC(CO)C(O)C2O)c(=O)[nH]1 (configuration not stated) [N2-Methylguanosine] | 6.4
36 | OC1CCCCC1N1CCC(c2ccccc2)CC1 (configuration not stated) [Vesamicol] | 2.65
37 | CCCCCCCCCCCCCCC(O)C(O)C(N)CO (configuration not stated) [Phytosphingosine] | 5.18
38 | O=C(C=Cc1ccccc1O)c1ccccc1 [2-Hydroxychalcone] | 1.01
39 | CC(=O)CCCCn1cnc2c1c(=O)n(C)c(=O)n2C [Lomifylline] | 1.09
40 | Cc1cccc(Nc2ccncc2S(=O)(=O)NC(=O)NC(C)C)c1 [Torasemide] | 1.45
41 | CC(NC(=O)C(Cc1ccc(O)cc1)NC(=O)CN)C(=O)O (stereo not drawn) [Gly-Tyr-Ala] | 7.89
42 | OCc1cccnc1 [3-Pyridinemthanol] | 1.41
43 | COc1cc(N)c(Cl)cc1C(=O)NC1CCN(CCCOc2ccc(F)cc2)CC1OC (configuration not stated) [Cisapride] | 2.28
44 | CCCCCCCCOC(=O)c1ccccc1C(=O)OCCCCCCCC [Dioctyl Phthalate] | 0.96
45 | Nc1ncnc2c1ncn2C1OC(COP(=O)(O)O)C(O)C1O (configuration not stated) [Adenosine 5'-monophosphate] | 8.88
46 | COC(=O)C1C(O)CC2CCC1N2C (configuration not stated) [Ecgonine methylester] | 4.18

Row | SMILES | LC retention time [min]
47 | NC(CCC(=O)NC(Cc1ccc(O)cc1)C(=O)O)C(=O)O (configuration not stated) [gamma-Glutamyltyrosine] | 8.52
48 | COC(=O)Nc1nc2ccc(C(=O)c3ccc(F)cc3)cc2[nH]1 [Flubendazole] | 1.16
49 | CCCCCC=CCC=CCC=CCC=CCCCC(=O)Nc1ccc(O)cc1 [AM 404] | 0.97
50 | CC(C)(C)NC(=O)C1CC2CCCCC2CN1CC(O)C(Cc1ccccc1)NC(=O)C(CC(N)=O)NC(=O)c1ccc2ccccc2n1 (configuration not stated) [Saquinavir] | 2.85
51 | CC(=O)OCC(CCn1cnc2cnc(N)nc21)COC(C)=O [Famciclovir] | 1.38
52 | NCCc1c[nH]c2ccccc12 [Tryptamine] | 6.92
53 | CC(=O)CCCCn1c(=O)c2c(ncn2C)n(C)c1=O [Pentoxifylline] | 1.09
54 | C[N+](C)(C)CCCCC(N)C(=O)[O-] (configuration not stated) [NEPSILON,NEPSILON,NEPSILON-TRIMETHYLLYSINE] | 9.29
55 | Cc1ccc(NC(=O)c2ccc(CN3CCN(C)CC3)cc2)cc1Nc1nccc(-c2cccnc2)n1 [Imatinib] | 5.36
56 | NCCCCN=C(N)N [Agmatine] | 8.92
57 | CCOC(=O)COc1cc(-c2nn(C)c(OC(F)F)c2Cl)c(F)cc1Cl [Pyrafluefen-ethyl] | 1.02
58 | CC(C)CN [Isobutylamine] | 5.04
59 | CCN(CC)C(=O)C1(c2ccccc2)CC1CN (configuration not stated) [Milnacipran] | 3.23
60 | c1ccc2c3c([nH]c2c1)CNCC3 [Tryptoline] | 4.9
61 | NC(CCC(=O)O)C(=O)O (configuration not stated) [Glutamic acid] | 8.85
62 | Clc1ccc(CON=C(Cn2ccnc2)c2ccc(Cl)cc2Cl)c(Cl)c1 [Oxiconazole] | 1.08
63 | O=C1Nc2ccc(Cl)cc2C(c2ccccc2)=NC1O (configuration not stated) [Oxazepam] | 1.37
64 | NC(=O)c1ccccc1 [Benzamide] | 1.27
65 | COc1ccc2c3c1OC1C(=O)CCC4C(C2)N(C)CCC314 (configuration not stated) [Hydrocodone] | 3.8
66 | CN1C2CCC1C(C(=O)O)C(OC(=O)c1ccccc1)C2 (configuration not stated) [Benzoylecgonine] | 3.63
67 | O=C(c1ccccc1)c1c(O)cc(O)cc1O [Phlorobenzophenone] | 1.34
68 | CC(C)CC(NC(=O)C(O)C(N)Cc1ccccc1)C(=O)O (configuration not stated) [Bestatin] | 5.98
69 | Nc1ncnc2c1ncn2C1OC(CO)CC1O (configuration not stated) [Cordycepin] | 3.54

Row | SMILES | LC retention time [min]
70 | Nc1nnc(-c2cccc(Cl)c2Cl)c(N)n1 [Lamotrigine] | 1.98
71 | CN1C(=O)CCC1c1cccnc1 (configuration not stated) [Cotinine] | 1.49
72 | O=c1c(-c2ccc(O)cc2)coc2cc(O)cc(O)c12 [4,5,7-Trihydroxyisoflavone] | 1.27
73 | CCC1(O)CC2CN(CCc3c([nH]c4ccccc34)C(C(=O)OC)(c3cc4c(cc3OC)N(C=O)C3C(O)(C(=O)OC)C(OC(C)=O)C5(CC)C=CCN6CCC43C65)C2)C1 (configuration not stated) [Vincristine] | 3.7
74 | CN(C)CCC=C1c2ccccc2COc2ccccc21 [Doxepin] | 2.26
75 | COc1cc(CNC(=O)CCCCCCC(C)C)ccc1O [Dihydrocapsaicin] | 1.07
76 | C=C(C)C1CC=C(C)CC1 (configuration not stated) [Limonene] | 0.92
77 | Cn1c(=O)c2c(ncn2C)n(C)c1=O [Caffeine] | 1.21
78 | O=c1n(CCCN2CCN(c3cccc(Cl)c3)CC2)nc2ccccn12 [Trazodone] | 2.38
79 | CN1CCN2c3ncccc3Cc3ccccc3C2C1 (configuration not stated) [Mirtazapine] | 3.08
80 | NC(=O)CS(=O)C(c1ccccc1)c1ccccc1 (configuration not stated) [Modafinil] | 1.27
81 | CNC(Cc1ccccc1)C(=O)O (configuration not stated) [N-Methylphenylalanine] | 6.22
82 | COc1ccccc1OCC(O)CN1CCN(CC(=O)Nc2c(C)cccc2C)CC1 (configuration not stated) [Ranolazine] | 2.79
83 | CC=C1N(C)C(C)CC1(c1ccccc1)c1ccccc1 (configuration not stated) [EDDP] | 1.9
84 | NC(Cc1ccc(O)c(O)c1)C(=O)O (configuration not stated) [3,4-Dihydroxyphenylalanine] | 8.31
85 | O=C(CCCN1CC=C(n2c(=O)[nH]c3ccccc32)CC1)c1ccc(F)cc1 [Droperidol] | 3.48
86 | NC(=O)NCCCC[C@H](N)C(=O)O [L-Homocitrulline] | 8.73
87 | NC(CS(=O)(=O)O)C(=O)O (configuration not stated) [Cysteic acid] | 8.92
88 | Nc1ncnc2c1ncn2C1CC(O)C(COP(=O)(O)O)O1 (configuration not stated) [2'-Deoxyadenosine-5'-monophosphate] | 8.63
89 | OCCc1c[nH]c2ccc(O)cc12 [5-Hydroxytryptophol] | 5.93
90 | NCCO [Ethanolamine] | 7.15
91 | OCc1c[nH]c2ccccc12 [Indole-3-carbinol] | 1.24
92 | NC(CC(=O)O)C(=O)NC(CCC(=O)O)C(=O)O (configuration not stated) [Asp-Glu] | 9.47
